Where two headings read alike, the source gives them in different places.
How the values were obtained:
p38α MAPK = p38α MAPK (Homo sapiens (Human), UniProt Q16539); experiment: Radioactive (33P-labelled ATP) filter binding assay of p38α MAPK activity; format: biochemical
Protocol: (§1) A number of compounds were also assessed for the inhibition of p38α MAPK activity (www.kinase-screen.mrc.ac.uk) in which a radioactive (^33P-labelled ATP) filter binding assay was used to directly measure phosphate incorporation. Table 1 summarises the binding affinities of the synthesised compounds to both forms of the enzyme as well as the inhibitory activities against p38α MAPK. By way of enabling a comparison with a non-thiophene compound the biological testing was also carried out for known inhibitor RWJ67657, shown in table 1.

[1] = target: inactive non-phosphorylated p38α MAPK (Homo sapiens (Human), UniProt Q16539); experiment: Fluorescence polarisation (FP) binding assay, inactive enzyme
Chain of inactive non-phosphorylated p38α MAPK (Q16539 whole entry): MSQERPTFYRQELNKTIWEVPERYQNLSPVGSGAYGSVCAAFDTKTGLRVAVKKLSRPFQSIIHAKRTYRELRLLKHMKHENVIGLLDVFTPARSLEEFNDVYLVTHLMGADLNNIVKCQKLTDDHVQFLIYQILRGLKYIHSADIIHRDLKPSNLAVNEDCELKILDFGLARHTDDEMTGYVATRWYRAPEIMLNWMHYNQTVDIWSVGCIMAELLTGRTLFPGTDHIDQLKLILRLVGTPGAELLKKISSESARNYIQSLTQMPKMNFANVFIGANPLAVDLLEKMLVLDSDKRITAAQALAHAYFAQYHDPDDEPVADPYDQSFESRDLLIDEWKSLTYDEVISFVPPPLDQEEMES
Protocol: as §1
(§2) FP signals were measured with a PHERAstar microplate reader (BMG Labtech) using black, low-binding half-area 96 well plates (Corning). Each binding data point was carried out in duplicate or triplicate. Data were recorded in millipolarisation (mP) units and measured at an excitation wavelength of 485 nm and an emission wavelength of 520 nm. Tris(hydroxymethyl)aminomethane (Tris) assay buffer was used in all binding experiments and consisted of 10 mM Tris, […] potassium chloride, and 3.5 mM 3-((3-cholamidopropyl)dimethylammonium)-1-propanesulfonate (Chaps) at pH 8.0.
(§3) Test compounds were prepared from dimethylsulfoxide stocks (10 mM). […] Plates were incubated at room temperature for 1 hour and FP signals were recorded. For binding experiments to active p38α MAPK, the FP signals were recorded after 2 hours incubation at room temperature. Data is represented as mean±SEM from two to three independent experiments.

[2] = target: active phosphorylated p38α MAPK (Homo sapiens (Human), UniProt Q16539); experiment: Fluorescence polarisation (FP) binding assay, active enzyme
Chain of active phosphorylated p38α MAPK (Q16539 whole entry): as above
Protocol: as §1, §2, §3

[3] = target: p38α MAPK activation (phosphorylation) by MKK6 (Homo sapiens (Human), UniProt Q16539); experiment: In vitro activation assay (phosphorylation of p38α MAPK by MKK6, western blot); format: biochemical
Chain of p38α MAPK activation (phosphorylation) by MKK6 (Q16539 whole entry): as above
Protocol: The assay was analysed by immunoblotting using antibodies against pan p38 MAPK and activated (phosphorylated) p38α MAPK. […] The reaction is initiated by the addition of ATP and MKK6 and proceeds for 15 minutes.
The assay was analysed by immunoblotting using antibodies against pan p38 MAPK and phosphorylated p38α MAPK.
The reaction was started by the addition of active MKK6 (5 ng) and ATP (100 μM). After 30 minutes incubation at room temperature, the reaction was stopped with ethylenediaminetetraacetic acid (EDTA) (10 mM). Phosphorylation of p38 MAPK was analysed by Western blotting.
Reaction samples were mixed 1:1 with Laemmli loading buffer, including β-mercaptoethanol (Biorad). Samples were heated at 95° C. for 5 minutes and 80 ng of protein was resolved using sodium dodecyl sulfate polyacrylamide gel electrophoresis (SDS-PAGE) gels (Biorad) at 200 V for 90 minutes. Proteins were transferred (100 V, 1 hour) to a polyvinylidene difluoride (PVDF) membrane (Merck). Membranes were incubated in blocking buffer (5% skim milk in Tris-buffered saline with Tween 20 (TBST), 1 hour, room temperature) and washed in TBST. Membranes were incubated with primary antibodies against total and phosphorylated p38 MAPK (1:1,000, Cell Signaling Technology) overnight at 4° C. Membranes were washed 4×15 minutes in TBST and probed with a secondary anti-mouse antibody at 1:2,000 dilution for 1 hour at room temperature, followed by washing in TBST (4×15 minutes). Signal detection was done with Western Lightning plus-ECL enhanced chemiluminescent substrate (Perkin Elmer) with the ChemiDoc Imaging System (BioRad).

[4] = Table 1, average of two experiments, read-out: IC50 (μM, mean)
[5] = read-out: IC50 (inhibitory activity against p38α MAPK)
[6] = Table 1, read-out: Ki (μM, mean ± SEM) inactive p38α
[7] = Table 6, read-out: Ki ± SEM (μM) to inactive p38α
[8] = Table 1, read-out: Ki (μM, mean ± SEM) active p38α
[9] = Table 6, read-out: Ki ± SEM (μM) to active p38α
[10] = Table 5, read-out: Ki ± SEM (μM) to inactive p38α MAPK
[11] = Table 5, read-out: Ki ± SEM (μM) to active p38α MAPK
[12] = read-out: Ki to active p38α MAPK

Chain of p38α MAPK (Q16539 whole entry): as above

Structure (SMILES)	Ki [1, 7] [µM]	Ki [2, 9] [µM]	Ki [1, 10] [µM]	Ki [2, 11] [µM]	other results
OCCC#Cc1sc(-c2ccc(F)cc2)c(-c2ccncc2)c1C(O)CCc1ccccc1 (stereo not drawn) [Compound 4.6, 4-(5-(4-Fluorophenyl)-3-(1-hydroxy-3-phenylpropyl)-4-(pyridin-4-yl)thiophen-2-yl)but-3-yn-1-ol]	> 10	3.9	–	–	IC50 (p38α MAPK; [4]): 4.72 µM; IC50 (p38α MAPK; Table 6, read-out: IC50 (mean)): 4.72 µM; IC50 (p38α MAPK; [5]): 4.72 µM; Ki [1, 6]: > 10 µM; Ki [2, 8]: 3.85 µM
Fc1ccc(-c2scc(CCCc3ccccc3)c2-c2ccncc2)cc1 [Compound 4.18, 4-(2-(4-Fluorophenyl)-4-(3-phenylpropyl)thiophen-3-yl)pyridine]	1.5 ± 0.5	0.72 ± 0.03	–	–	IC50 (p38α MAPK; [4]): 0.27 µM; IC50 (p38α MAPK; Table 6, read-out: IC50 (mean)): 0.27 µM; IC50 (p38α MAPK; [5]): 0.27 µM; Ki [1, 6]: 1.5 ± 0.5 µM; Ki [2, 8]: 0.72 ± 0.03 µM
Cc1cccc(-c2c(C#CCCO)sc(-c3ccc(F)cc3)c2-c2ccncc2)c1 [Compound 3.48, 4-(5-(4-Fluorophenyl)-4-(pyridin-4-yl)-3-(m-tolyl)thiophen-2-yl)but-3-yn-1-ol]	> 10	> 10	–	–	–
Cc1ccc(S(=O)(=O)Nc2ccc(-c3c(C#CCCO)sc(-c4ccc(F)cc4)c3-c3ccncc3)cc2)cc1 [Compound 3.46, N-(4-(5-(4-fluorophenyl)-2-(4-hydroxybut-1-yn-1-yl)-4-(pyridin-4-yl)thiophen-3-yl)phenyl)-4-methylbenzenesulfonamide]	> 10	> 10	–	–	–
CC(=O)Nc1ccc(-c2c(C#CCCO)sc(-c3ccc(F)cc3)c2-c2ccncc2)cc1 [Compound 3.42, N-(4-(5-(4-fluorophenyl)-2-(4-hydroxybut-1-yn-1-yl)-4-(pyridin-4-yl)thiophen-3-yl)phenyl)acetamide]	> 10	> 10	–	–	–
OC(CCc1ccccc1)c1csc(-c2ccc(F)cc2)c1-c1ccncc1 (stereo not drawn) [Compound 4.17, 1-(5-(4-Fluorophenyl)-4-(pyridin-4-yl)thiophen-3-yl)-3-phenylpropan-1-ol]	1.9 ± 0.3	0.99 ± 0.09	–	–	IC50 (p38α MAPK; [4]): 0.26 µM; IC50 (p38α MAPK; Table 6, read-out: IC50 (mean)): 0.26 µM; IC50 (p38α MAPK; [5]): 0.26 µM; Ki [1, 6]: 1.9 ± 0.3 µM; Ki [2, 8]: 0.99 ± 0.09 µM
NC(=O)c1ccc(-c2c(C#CCCO)sc(-c3ccc(F)cc3)c2-c2ccncc2)cc1 [Compound 3.36, 4-(5-(4-Fluorophenyl)-2-(4-hydroxybut-1-yn-1-yl)-4-(pyridin-4-yl)thiophen-3-yl)benzamide]	> 10	2 ± 1	–	–	–
Nc1ccc(-c2c(C#CCCO)sc(-c3ccc(F)cc3)c2-c2ccncc2)cc1 [Compound 3.40, 4-(3-(4-Aminophenyl)-5-(4-fluorophenyl)-4-(pyridin-4-yl)thiophen-2-yl)but-3-yn-1-ol]	> 10	> 10	–	–	–
COC(=O)c1ccc(-c2c(C#CCCO)sc(-c3ccc(F)cc3)c2-c2ccncc2)cc1 [Compound 3.30, Methyl 4-(5-(4-fluorophenyl)-2-(4-hydroxybut-1-yn-1-yl)-4-(pyridin-4-yl)thiophen-3-yl)benzoate]	> 10	> 10	–	–	–
OCCC#Cc1sc(-c2ccc(F)cc2)c(-c2ccncc2)c1-c1ccc(C(F)(F)F)cc1 [Compound 3.52, 4-(5-(4-Fluorophenyl)-4-(pyridin-4-yl)-3-(4-(trifluoromethyl)phenyl)thiophen-2-yl)but-3-yn-1-ol]	> 10	> 10	–	–	–
Nc1cccc(-c2c(C#CCCO)sc(-c3ccc(F)cc3)c2-c2ccncc2)c1 [Compound 3.39, 4-(3-(3-Aminophenyl)-5-(4-fluorophenyl)-4-(pyridin-4-yl)thiophen-2-yl)but-3-yn-1-ol]	> 10	3.2	–	–	–

More lines, main results first:

Ki [1, 7] [µM]	Ki [2, 9] [µM]	Ki [1, 10] [µM]	Ki [2, 11] [µM]	Structure (SMILES)	other results
2.7 ± 0.3	0.67 ± 0.03	2.7 ± 0.3	0.67 ± 0.03	O=C(CCCO)c1cc(-c2ccncc2)c(-c2ccc(F)cc2)s1 [Compound 5.10, 1-(5-(4-Fluorophenyl)-4-(pyridin-4-yl)thiophen-2-yl)-4-hydroxybutan-1-one]	inhibition of p38α MAPK activation (phosphorylation) ([3]; 10 μM concentration): inhibition of p38α MAPK activation; Ki [2, 12]: 0.67 µM
0.98 ± 0.02	0.25 ± 0.04	0.98 ± 0.02	0.25 ± 0.04	OCCCCc1cc(-c2ccncc2)c(-c2ccc(F)cc2)s1 [Compound 5.9, 4-(5-(4-Fluorophenyl)-4-(pyridin-4-yl)thiophen-2-yl)butan-1-ol]	inhibition of p38α MAPK activation (phosphorylation) ([3]; 10 μM concentration): inhibition of p38α MAPK activation; Ki [2, 12]: 0.25 µM
0.47 ± 0.01	0.16 ± 0.02	0.47 ± 0.01	0.16 ± 0.02	Nc1nc(N)c(F)c(-c2cc(-c3ccncc3)c(-c3ccc(F)cc3)s2)c1F [Compound 5.21, 3,5-Difluoro-4-(5-(4-fluorophenyl)-4-(pyridin-4-yl)thiophen-2-yl)pyridine-2,6-diamine]	inhibition of p38α MAPK activation (phosphorylation) ([3]; 1 μM concentration): significant inhibition; inhibition of p38α MAPK activation (phosphorylation) ([3]; 10 μM concentration): inhibition of p38α MAPK activation; Ki ([1]; read-out: Ki to inactive non-phosphorylated p38α MAPK): 0.47 µM; Ki [2, 12]: 0.16 µM
0.66 ± 0.06	0.21 ± 0.01	0.66 ± 0.06	0.21 ± 0.01	Nc1nc(F)c(F)c(-c2cc(-c3ccncc3)c(-c3ccc(F)cc3)s2)c1F [Compound 5.20, 3,5,6-Trifluoro-4-(5-(4-fluorophenyl)-4-(pyridin-4-yl)thiophen-2-yl)pyridin-2-amine]	inhibition of p38α MAPK activation (phosphorylation) ([3]; 10 μM concentration): inhibition of p38α MAPK activation; Ki [2, 12]: 0.2 µM
5 ± 2	2.8 ± 0.1	5 ± 2	2.8 ± 0.1	O=C(c1ccccc1)c1cc(-c2ccncc2)c(-c2ccc(F)cc2)s1 [Compound 5.16, (5-(4-Fluorophenyl)-4-(pyridin-4-yl)thiophen-2-yl) (phenyl)methanone]	inhibition of p38α MAPK activation (phosphorylation) ([3]; 10 μM concentration): inhibition of p38α MAPK activation
1.1 ± 0.2	0.19 ± 0.04	1.1 ± 0.2	0.19 ± 0.04	NCCC#Cc1cc(-c2ccncc2)c(-c2ccc(F)cc2)s1 [Compound 5.7, 4-(5-(4-Fluorophenyl)-4-(pyridin-4-yl)thiophen-2-yl)but-3-yn-1-amine]	Ki [2, 12]: 0.19 µM
3.01 ± 0.03	0.8 ± 0.1	3.01 ± 0.03	0.8 ± 0.1	Fc1ccc(-c2sc(-c3c(F)c(F)nc(F)c3F)cc2-c2ccncc2)cc1 [Compound 5.19, 2,3,5,6-Tetrafluoro-4-(5-(4-fluorophenyl)-4-(pyridin-4-yl)thiophen-2-yl)pyridine]	Ki [2, 12]: 0.8 µM
0.21 ± 0.04	0.013 ± 0.006	0.21 ± 0.04	0.013 ± 0.006	OCCC#Cc1nc(-c2ccc(F)cc2)c(-c2ccncc2)n1CCCc1ccccc1 [RWJ67657, reference compound]	inhibition of p38α MAPK activation (phosphorylation) ([3]; 10 μM concentration): inhibition of p38α MAPK activation; Ki [1, 6]: 0.21 ± 0.04 µM; Ki [2, 8]: 0.013 ± 0.006 µM
6.4 ± 0.6	1.4	6.4 ± 0.6	1.4	CC(=O)c1cc(-c2ccncc2)c(-c2ccc(F)cc2)s1 [Compound 5.15, 1-(5-(4-Fluorophenyl)-4-(pyridin-4-yl)thiophen-2-yl)ethanone]	–
5.9 ± 0.7	2.5	5.9 ± 0.7	2.5	O=C(c1ccco1)c1cc(-c2ccncc2)c(-c2ccc(F)cc2)s1 [Compound 5.17, (5-(4-Fluorophenyl)-4-(pyridin-4-yl)thiophen-2-yl) (furan-2-yl)methanone]	–

— US11273153B2, “MAPK inhibitors” (EverBrilliant Pharma Pty Ltd, priority 2014, dated 2022)
